Measured values published in ChEMBL document CHEMBL1201862, “PubChem BioAssay data set” (2004).
Active and inactive are the calls of the source.

Experiments:
[1] = biological target: T1, Tyrosine-protein phosphatase non-receptor type 22 (Homo sapiens, UniProt Q9Y2R2); format: functional
T1 sequence (Q9Y2R2 whole entry): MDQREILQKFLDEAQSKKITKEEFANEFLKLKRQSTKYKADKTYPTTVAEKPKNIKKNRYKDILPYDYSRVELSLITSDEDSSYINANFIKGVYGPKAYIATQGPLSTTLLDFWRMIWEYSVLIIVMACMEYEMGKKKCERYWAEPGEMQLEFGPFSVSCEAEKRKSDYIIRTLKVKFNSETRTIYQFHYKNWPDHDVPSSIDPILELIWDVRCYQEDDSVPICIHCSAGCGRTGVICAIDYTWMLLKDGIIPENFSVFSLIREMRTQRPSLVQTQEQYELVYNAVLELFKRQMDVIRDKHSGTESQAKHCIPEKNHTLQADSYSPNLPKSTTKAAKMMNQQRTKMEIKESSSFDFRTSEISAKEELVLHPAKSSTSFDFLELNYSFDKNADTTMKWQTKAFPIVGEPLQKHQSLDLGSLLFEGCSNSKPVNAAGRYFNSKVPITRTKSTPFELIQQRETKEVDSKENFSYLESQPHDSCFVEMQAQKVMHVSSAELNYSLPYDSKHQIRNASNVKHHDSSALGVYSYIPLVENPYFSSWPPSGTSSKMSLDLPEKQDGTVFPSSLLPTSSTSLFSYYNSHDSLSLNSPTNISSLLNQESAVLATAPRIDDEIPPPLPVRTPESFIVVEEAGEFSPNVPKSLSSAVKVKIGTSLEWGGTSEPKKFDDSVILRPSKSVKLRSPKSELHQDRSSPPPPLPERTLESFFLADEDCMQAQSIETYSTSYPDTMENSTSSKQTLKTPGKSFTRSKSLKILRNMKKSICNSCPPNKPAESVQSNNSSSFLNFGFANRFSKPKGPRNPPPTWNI

[2] = biological target: T1, Tyrosine-protein phosphatase non-receptor type 22; format: functional; remark: listed apart in the source
[3] = biological target: T2, Tyrosine-protein phosphatase non-receptor type 7 (Homo sapiens, UniProt P35236); format: functional
T2 sequence (P35236 whole entry): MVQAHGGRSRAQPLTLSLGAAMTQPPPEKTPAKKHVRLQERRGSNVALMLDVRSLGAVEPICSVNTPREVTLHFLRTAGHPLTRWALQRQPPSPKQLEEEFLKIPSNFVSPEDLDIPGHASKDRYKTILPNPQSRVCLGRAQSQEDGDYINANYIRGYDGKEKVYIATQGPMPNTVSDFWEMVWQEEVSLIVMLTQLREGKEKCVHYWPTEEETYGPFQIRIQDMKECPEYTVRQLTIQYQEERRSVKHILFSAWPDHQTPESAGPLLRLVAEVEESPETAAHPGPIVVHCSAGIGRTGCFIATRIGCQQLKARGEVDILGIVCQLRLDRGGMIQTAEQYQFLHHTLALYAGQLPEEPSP

[4] = biological target: Sphingosine 1-phosphate receptor 2 (Homo sapiens, UniProt O95136); assay: Late stage counterscreen assay for S1P4 antagonists: Fluorescence dose response cell-based screening assay for antagonists of the Sphingosine 1-Phosphate Receptor 2 (S1P2). [Related pubchem assays (depositor defined):AID1510, AID1524, AID1692, AID1853, AID2332, AID489009, AID489017]; format: functional
Chain of Sphingosine 1-phosphate receptor 2 (O95136 whole entry): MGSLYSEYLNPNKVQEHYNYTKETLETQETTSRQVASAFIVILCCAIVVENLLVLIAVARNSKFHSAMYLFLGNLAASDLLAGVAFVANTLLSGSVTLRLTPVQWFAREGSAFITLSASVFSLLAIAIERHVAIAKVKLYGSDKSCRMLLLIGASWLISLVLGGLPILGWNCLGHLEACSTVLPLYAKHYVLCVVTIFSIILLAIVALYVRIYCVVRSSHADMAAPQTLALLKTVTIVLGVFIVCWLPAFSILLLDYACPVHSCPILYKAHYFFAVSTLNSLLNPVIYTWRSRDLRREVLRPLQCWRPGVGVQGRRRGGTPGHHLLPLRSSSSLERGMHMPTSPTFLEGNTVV

[5] = biological target: Sphingosine 1-phosphate receptor 3 (Homo sapiens, UniProt Q99500); assay: Late stage counterscreen assay for S1P4 antagonists: Fluorescence dose response cell-based screening assay for antagonists of the Sphingosine 1-Phosphate Receptor 3 (S1P3). [Related pubchem assays (depositor defined):AID1510, AID1524, AID1692, AID1853, AID2332, AID489009, AID489017]; format: functional
Chain of Sphingosine 1-phosphate receptor 3 (Q99500 whole entry): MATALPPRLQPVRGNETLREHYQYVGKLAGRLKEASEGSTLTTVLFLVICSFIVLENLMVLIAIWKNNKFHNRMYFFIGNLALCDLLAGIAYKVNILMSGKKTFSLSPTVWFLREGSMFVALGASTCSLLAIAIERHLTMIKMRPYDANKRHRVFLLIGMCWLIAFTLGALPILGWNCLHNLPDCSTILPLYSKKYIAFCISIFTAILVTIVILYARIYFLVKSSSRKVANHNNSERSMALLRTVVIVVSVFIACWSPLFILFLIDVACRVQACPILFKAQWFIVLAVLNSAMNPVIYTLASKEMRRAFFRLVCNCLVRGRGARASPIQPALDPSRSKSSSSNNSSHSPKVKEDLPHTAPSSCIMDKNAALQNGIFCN

[6] = biological target: Sphingosine 1-phosphate receptor 5 (Homo sapiens, UniProt Q9H228); assay: Late stage counterscreen assay for S1P4 antagonists: Fluorescence dose response cell-based screening assay for antagonists of the Sphingosine 1-Phosphate Receptor 5 (S1P5). [Related pubchem assays (depositor defined):AID1510, AID1524, AID1692, AID1853, AID2332, AID489009, AID489017]; format: functional
Chain of Sphingosine 1-phosphate receptor 5 (Q9H228 whole entry): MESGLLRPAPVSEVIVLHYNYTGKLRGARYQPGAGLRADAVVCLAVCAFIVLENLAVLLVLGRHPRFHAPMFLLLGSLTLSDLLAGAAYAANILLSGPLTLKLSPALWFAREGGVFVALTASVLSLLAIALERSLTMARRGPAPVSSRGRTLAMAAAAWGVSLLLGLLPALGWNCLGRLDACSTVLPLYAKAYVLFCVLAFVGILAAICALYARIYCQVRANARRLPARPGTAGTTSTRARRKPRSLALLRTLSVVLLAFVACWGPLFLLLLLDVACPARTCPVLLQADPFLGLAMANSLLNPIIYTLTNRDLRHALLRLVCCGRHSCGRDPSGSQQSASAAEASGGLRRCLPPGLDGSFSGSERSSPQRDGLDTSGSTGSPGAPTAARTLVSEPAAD

[7] = biological target: Sphingosine 1-phosphate receptor 1 (Homo sapiens, UniProt P21453); assay: Late stage counterscreen assay for S1P4 antagonists: Fluorescence dose response cell-based screening assay for antagonists of the Sphingosine 1-Phosphate Receptor 1 (S1P1). [Related pubchem assays (depositor defined):AID1510, AID1524, AID1692, AID1853, AID2332, AID489009, AID489017]; format: functional
Chain of Sphingosine 1-phosphate receptor 1 (P21453 whole entry): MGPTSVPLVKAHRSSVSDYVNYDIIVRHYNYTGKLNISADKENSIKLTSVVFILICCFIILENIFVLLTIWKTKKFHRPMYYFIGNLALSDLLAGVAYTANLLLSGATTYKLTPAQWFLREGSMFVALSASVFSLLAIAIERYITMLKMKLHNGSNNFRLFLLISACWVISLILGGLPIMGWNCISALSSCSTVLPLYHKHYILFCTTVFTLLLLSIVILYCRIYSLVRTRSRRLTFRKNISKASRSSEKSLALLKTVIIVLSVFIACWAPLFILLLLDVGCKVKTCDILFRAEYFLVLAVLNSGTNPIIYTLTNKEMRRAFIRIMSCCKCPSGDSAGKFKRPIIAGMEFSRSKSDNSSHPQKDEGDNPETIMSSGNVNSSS

[8] = biological target: Peroxisome proliferator-activated receptor gamma/Nuclear receptor coactivator 2 (Homo sapiens, UniProt P37231); assay: TR-FRET dose response biochemical High Throughput Screening assay for agonists of the steroid receptor coactivator 2 (SRC-2) recruitment by the peroxisome proliferator-activated receptor gamma (PPAR gamma): non-selective agonists. [Related pubchem assays: 1297, 1032 ]; format: functional
Streptokinase A = biological target: T3, Streptokinase A (Streptococcus pyogenes serotype M1, UniProt P10520); assay: viability-normalized secreted streptokinase activity reduction – plasminogen activation absorbance, OD405, dose response (AID 1914); format: functional, Streptococcus pyogenes M1 GAS;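 further: secreted streptokinase activity via plasminogen activation per viability signal from cell pellet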
T3 sequence (P10520 whole entry): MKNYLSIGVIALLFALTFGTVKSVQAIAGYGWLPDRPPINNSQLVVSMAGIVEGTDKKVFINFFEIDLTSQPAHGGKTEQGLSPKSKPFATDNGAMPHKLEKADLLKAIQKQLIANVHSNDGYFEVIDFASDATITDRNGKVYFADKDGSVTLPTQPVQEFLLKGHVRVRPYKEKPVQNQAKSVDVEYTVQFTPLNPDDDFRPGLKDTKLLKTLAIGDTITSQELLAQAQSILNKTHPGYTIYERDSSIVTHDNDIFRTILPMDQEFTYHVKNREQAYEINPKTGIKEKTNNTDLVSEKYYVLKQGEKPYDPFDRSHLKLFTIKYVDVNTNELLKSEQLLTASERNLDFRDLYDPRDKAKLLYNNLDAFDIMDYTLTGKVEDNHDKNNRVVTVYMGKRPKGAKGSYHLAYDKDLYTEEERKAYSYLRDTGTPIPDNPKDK

Genome polyprotein = Genome polyprotein (dengue virus type 2, UniProt P29990); assay: flavivirus cap methylation enzyme inhibition – biochemical, confirmation dose response, primary screen (AID 588689); format: functional
Escherichia coli = assay: microbe, parasite or virus in culture
[9] = biological target: Peroxisome proliferator-activated receptor gamma/Nuclear receptor coactivator 1 (Homo sapiens, UniProt P37231); assay: TR-FRET dose response biochemical High Throughput Screening assay for agonists of the steroid receptor coactivator 1 (SRC-1) recruitment by the peroxisome proliferator-activated receptor gamma (PPAR gamma): non-selective agonists. [Related pubchem assays (depositor defined):AID1300, AID1808, AID504735, AID631]; format: protein assay
Chain of Peroxisome proliferator-activated receptor gamma/Nuclear receptor coactivator 1 (P37231 whole entry): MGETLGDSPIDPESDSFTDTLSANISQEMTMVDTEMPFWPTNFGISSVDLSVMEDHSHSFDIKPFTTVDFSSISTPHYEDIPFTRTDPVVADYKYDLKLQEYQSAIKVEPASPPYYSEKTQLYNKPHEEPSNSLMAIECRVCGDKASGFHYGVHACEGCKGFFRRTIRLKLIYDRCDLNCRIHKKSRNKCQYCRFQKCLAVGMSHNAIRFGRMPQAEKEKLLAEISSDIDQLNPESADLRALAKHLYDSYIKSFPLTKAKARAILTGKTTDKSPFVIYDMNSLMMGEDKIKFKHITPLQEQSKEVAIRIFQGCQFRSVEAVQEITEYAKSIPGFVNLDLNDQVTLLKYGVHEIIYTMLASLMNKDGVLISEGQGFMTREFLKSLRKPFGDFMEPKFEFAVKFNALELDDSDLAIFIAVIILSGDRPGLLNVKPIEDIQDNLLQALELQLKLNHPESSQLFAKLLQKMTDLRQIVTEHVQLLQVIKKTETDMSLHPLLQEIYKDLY
Chain of Peroxisome proliferator-activated receptor gamma/Nuclear receptor coactivator 1 (Q15788 whole entry, further chain): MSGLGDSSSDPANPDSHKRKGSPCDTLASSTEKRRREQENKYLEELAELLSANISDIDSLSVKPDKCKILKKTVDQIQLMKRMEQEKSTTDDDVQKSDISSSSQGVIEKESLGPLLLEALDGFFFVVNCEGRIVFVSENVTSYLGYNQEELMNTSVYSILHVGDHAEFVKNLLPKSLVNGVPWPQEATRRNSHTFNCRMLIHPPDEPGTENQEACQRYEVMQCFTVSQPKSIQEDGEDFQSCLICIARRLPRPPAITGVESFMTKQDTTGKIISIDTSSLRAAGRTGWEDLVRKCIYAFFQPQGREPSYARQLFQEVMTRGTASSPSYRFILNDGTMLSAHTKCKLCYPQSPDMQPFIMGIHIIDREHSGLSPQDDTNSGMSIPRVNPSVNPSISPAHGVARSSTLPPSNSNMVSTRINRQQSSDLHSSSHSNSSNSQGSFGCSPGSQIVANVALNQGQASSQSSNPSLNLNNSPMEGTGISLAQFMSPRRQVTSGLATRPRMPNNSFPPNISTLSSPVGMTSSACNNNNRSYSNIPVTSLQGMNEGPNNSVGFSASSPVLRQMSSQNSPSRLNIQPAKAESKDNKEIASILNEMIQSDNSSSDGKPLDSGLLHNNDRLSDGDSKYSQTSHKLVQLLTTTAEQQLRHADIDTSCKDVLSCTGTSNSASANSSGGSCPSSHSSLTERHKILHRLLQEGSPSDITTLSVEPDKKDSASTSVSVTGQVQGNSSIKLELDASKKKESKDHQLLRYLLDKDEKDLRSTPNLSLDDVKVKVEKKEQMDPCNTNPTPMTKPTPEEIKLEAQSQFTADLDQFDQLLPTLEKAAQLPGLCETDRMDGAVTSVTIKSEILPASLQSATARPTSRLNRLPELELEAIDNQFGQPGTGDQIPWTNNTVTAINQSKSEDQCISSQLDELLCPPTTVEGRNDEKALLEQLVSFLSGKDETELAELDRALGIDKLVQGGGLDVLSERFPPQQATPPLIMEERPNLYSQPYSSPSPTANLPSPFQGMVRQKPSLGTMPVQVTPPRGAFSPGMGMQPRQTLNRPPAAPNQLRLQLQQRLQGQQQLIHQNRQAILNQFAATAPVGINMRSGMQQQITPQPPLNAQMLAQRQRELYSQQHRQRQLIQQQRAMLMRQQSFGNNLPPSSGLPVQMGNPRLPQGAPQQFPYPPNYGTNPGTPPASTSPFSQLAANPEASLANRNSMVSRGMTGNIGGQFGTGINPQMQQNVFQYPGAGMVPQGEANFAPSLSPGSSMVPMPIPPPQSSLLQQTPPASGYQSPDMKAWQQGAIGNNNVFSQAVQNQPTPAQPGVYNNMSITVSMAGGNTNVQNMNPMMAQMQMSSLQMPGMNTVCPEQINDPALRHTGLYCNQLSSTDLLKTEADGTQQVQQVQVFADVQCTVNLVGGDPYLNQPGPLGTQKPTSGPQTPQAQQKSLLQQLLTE

[10] = biological target: T4, Serine/threonine-protein phosphatase (Candida dubliniensis (strain CD36 / CBS 7987 / NCPF 3949 / NRRLY-17841) (Yeast), UniProt B9W6M3); assay: blockers of CaCl2-induced CDRE-lacZ signaling – S. cerevisiae, luminescence, secondary, dose response (AID 2388); format: functional, cell-based;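 further: yeast reporter cells carrying a calcineurin-responsive lacZ construct stimulated with calcium chloride; luminescent beta-galactosidase reporter signal in whole cells rather than isolated phosphatase activity; potency for inhibition where a drop in reporter signal means calcineurin blockade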
T4 sequence (B9W6M3 whole entry): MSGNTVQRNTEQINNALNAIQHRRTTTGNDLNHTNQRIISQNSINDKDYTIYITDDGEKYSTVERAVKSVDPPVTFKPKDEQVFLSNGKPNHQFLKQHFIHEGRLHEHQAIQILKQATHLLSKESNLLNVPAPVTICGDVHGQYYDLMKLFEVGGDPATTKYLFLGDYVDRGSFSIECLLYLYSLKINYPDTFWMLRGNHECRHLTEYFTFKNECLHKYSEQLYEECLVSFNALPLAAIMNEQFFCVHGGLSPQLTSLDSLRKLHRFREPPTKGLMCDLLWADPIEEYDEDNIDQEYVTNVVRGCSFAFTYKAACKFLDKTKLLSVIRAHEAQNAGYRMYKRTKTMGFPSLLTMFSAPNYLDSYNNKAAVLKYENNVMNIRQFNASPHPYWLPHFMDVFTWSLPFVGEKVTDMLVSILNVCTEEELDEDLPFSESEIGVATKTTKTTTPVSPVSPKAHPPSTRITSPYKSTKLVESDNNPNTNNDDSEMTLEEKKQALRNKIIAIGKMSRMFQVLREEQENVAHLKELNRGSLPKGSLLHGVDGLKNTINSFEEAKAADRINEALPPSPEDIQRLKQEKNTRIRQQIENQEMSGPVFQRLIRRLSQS

[11] = biological target: Peroxisome proliferator-activated receptor gamma/Nuclear receptor coactivator 3 (Homo sapiens, UniProt P37231); assay: TR-FRET dose response biochemical High Throughput Screening assay for agonists of the steroid receptor coactivator 3 (SRC-3) recruitment by the peroxisome proliferator-activated receptor gamma (PPAR gamma): non-selective agonists. [Related pubchem assays: 1301 (Confirmation screen.), 1048 (Primary screen.)]; format: functional
[12] = biological target: T5, Probable nicotinate-nucleotide adenylyltransferase (Staphylococcus aureus (strain N315), UniProt P65502); format: functional, Staphylococcus aureus subsp. aureus N315;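 on IC50 Mean: confirmatory dose-response retesting of NadD inhibitor hits first found in an ultra-high-throughput screen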
T5 sequence (P65502 whole entry): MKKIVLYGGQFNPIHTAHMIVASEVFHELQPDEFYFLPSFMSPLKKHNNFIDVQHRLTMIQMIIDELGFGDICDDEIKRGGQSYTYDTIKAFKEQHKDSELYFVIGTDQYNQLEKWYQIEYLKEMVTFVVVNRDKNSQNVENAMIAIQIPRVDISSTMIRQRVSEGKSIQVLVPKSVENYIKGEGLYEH

[13] = test system: Streptococcus sp. 'group A'; assay: Streptococcus pyogenes SK(-)GAS viability under kanamycin – luminescence, BacTiterGlo, confirmation, counter-screen for streptokinase expression inhibitor project, dose response (AID 1900); format: functional, organism-based
[14] = NIH-3T3 fibroblast cytotoxicity, dose response, cytotoxicity control, cell-based, fluorescence, Alamar Blue, secondary assay (AID 2327); format: functional;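 further: NIH-3T3 mouse fibroblasts cultured with fluconazole at 8 µg/mL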
[15] = biological target: T5, Probable nicotinate-nucleotide adenylyltransferase; format: functional, Staphylococcus aureus subsp. aureus N315; settings: read-out: IC50_Mean
[16] = fluconazole-exposed Candida albicans growth modulators – fluorescence, retest, confirmation (AID 2467); format: functional, cell-based
Aminopeptidase N = biological target: T6, Aminopeptidase N (Plasmodium falciparum FcB1/Columbia, UniProt O96935); assay: malaria alanyl aminopeptidase activity blockers – biochemical, fluorogenic H-Leu-NHMec substrate, 1536-well (AID 1445); set-up: species or system Plasmodium falciparum 3D7, 3D7
T6 sequence (O96935 whole entry): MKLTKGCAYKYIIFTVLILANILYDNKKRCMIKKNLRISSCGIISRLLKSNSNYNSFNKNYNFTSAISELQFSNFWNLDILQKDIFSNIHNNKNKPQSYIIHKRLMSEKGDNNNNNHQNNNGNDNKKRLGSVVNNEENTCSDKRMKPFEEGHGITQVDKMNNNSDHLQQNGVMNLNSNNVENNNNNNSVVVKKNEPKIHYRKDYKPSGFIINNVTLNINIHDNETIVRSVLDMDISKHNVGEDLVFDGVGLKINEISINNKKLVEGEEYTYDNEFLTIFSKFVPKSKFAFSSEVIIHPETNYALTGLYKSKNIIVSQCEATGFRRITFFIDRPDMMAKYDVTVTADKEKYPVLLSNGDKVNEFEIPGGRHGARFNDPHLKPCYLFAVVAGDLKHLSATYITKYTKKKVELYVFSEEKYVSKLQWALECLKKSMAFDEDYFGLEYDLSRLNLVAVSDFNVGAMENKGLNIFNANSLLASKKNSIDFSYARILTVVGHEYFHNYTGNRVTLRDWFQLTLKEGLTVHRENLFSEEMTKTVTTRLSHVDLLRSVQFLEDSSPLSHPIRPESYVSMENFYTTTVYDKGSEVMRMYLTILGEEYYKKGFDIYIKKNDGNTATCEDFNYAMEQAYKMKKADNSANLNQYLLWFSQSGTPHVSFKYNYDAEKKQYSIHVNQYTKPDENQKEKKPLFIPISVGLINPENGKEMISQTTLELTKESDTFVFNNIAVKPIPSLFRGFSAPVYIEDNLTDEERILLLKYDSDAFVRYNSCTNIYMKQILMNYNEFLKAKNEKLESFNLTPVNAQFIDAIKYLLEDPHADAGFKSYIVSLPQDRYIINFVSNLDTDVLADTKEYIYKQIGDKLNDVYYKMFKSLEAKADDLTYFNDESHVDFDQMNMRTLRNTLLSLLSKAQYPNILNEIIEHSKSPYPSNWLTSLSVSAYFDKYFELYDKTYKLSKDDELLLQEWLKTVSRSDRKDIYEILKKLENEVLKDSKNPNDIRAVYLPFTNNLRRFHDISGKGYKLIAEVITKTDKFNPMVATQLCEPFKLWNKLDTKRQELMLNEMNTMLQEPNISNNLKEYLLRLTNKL

Streptococcus = assay: GAS UMAA2166 growth inhibition – luminescence, BacTiterGlo, counter-screen for streptokinase expression inhibitor project, dose response (AID 1915); format: functional, organism-based;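 further: potency for reduction of bacterial viability or growth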
[17] = biological target: Induced myeloid leukemia cell differentiation protein Mcl-1 (Homo sapiens, UniProt Q07820); format: functional
Chain of Induced myeloid leukemia cell differentiation protein Mcl-1 (Q07820 whole entry): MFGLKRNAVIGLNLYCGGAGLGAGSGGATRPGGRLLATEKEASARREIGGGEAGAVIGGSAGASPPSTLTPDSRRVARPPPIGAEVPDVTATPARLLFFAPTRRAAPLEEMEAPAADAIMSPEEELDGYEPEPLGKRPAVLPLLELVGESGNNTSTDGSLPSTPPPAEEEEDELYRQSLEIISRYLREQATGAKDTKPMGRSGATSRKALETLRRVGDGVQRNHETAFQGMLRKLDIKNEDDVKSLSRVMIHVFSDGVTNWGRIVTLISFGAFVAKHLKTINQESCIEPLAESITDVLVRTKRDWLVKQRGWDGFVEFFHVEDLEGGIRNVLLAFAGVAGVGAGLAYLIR

[18] = biological target: ATP-dependent molecular chaperone HSP82 (Candida albicans (strain WO-1) (Yeast), UniProt C4YTQ8); assay: steroid-induced GRE reporter decrease in yeast – S. cerevisiae, luminescence, Hsp90 inhibitor project, dose response (AID 2400); format: functional, cell-based;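 further: beta-galactosidase luminescence from glucocorticoid response element reporter as proxy for Hsp90 function; inhibitor potency where signal loss means Hsp90 inhibition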
Chain of ATP-dependent molecular chaperone HSP82 (C4YTQ8 whole entry): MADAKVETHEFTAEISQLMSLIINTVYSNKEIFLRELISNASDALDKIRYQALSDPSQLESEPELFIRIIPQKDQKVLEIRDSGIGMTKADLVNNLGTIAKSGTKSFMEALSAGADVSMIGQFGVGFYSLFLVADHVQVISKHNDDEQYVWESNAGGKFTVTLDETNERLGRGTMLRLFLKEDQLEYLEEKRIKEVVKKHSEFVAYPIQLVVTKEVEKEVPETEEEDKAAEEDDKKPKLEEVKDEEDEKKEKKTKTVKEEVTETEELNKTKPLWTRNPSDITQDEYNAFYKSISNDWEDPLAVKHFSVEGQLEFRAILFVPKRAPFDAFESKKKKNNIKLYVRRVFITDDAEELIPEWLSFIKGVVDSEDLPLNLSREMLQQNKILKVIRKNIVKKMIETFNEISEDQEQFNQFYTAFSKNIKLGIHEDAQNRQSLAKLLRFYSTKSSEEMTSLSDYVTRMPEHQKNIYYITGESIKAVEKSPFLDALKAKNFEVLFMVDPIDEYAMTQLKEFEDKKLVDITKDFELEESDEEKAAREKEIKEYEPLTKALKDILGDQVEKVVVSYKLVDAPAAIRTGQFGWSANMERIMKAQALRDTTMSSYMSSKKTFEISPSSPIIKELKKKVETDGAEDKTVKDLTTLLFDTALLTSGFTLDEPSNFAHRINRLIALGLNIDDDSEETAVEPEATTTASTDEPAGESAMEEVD

Vero = assay: viability of Vero cells under compound – cytotoxicity control for flavivirus capping enzyme inhibitors (AID 588742); format: functional; settings: Chlorocebus sabaeus

COc1ccc(OC(C)C(=O)N2CC(C)OC(C)C2)cc1 (configuration not stated)
inactive: IC50 [1] > 79.4 µM | IC50 [2] > 79.4 µM | IC50 [3] > 79.4 µM

Cc1cccc(C)c1NC(=O)c1ccc(-c2cc(F)ccc2F)o1
inactive: IC50 [4] 16.9 µM | IC50 [5] > 25 µM | IC50 [6] > 25 µM | IC50 [7] > 25 µM

Cc1ccc(-n2c(=O)c3sccc3n(CC(=O)NCC3CCCO3)c2=O)cc1F (configuration not stated)
inactive: IC50 [1] > 79.4 µM | IC50 [2] > 79.4 µM | IC50 [3] > 79.4 µM

Cc1ccc(N2C(=O)/C(=C\Nc3ccccc3-c3nnc(S)nc3O)c3ccccc3C2=O)cc1C
inconclusive: EC50 [14] 16 µM
> 79.4 µM (not active): EC50 [11]
active: IC50 (Genome polyprotein) 31.5 µM | AC50 (Escherichia coli) 33.6 µM | IC50 [12] 3.94 µM | EC50 [13] 0.798 µM | IC50 [15] 11.2 µM | EC50 [16] 0.262 µM | IC50 (Aminopeptidase N) 39.2 µM | EC50 (Streptococcus) 13.8 µM | IC50 [17] 3.26 µM | EC50 [18] 23 µM | CC50 (Vero) > 40 µM
13.2 µM (not active): EC50 [8]
> 150 µM (not active): EC50 (Streptokinase A)
inactive: EC50 [9] 26.6 µM | EC50 [10] > 180 µM
